For 27 molecules, IC50 results are on record in patent publication US20250382305A1 (PTC THERAPEUTICS, INC., priority 2022, published 2025).

The test system of assay [1] is ATXN3 pre-mRNA. The assay can be described thus: RT-qPCR Assay to Quantify Exon 4 Skipping in ATXN3 pre-mRNA in Cells. The format is cell-based. As to conditions: percent exon 4 skipping in ATXN3 pre-mRNA, RT-qPCR of cell lysates; average IC50. The method, boiled down: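 Cells plated at 10,000/well onto a 7-point, 3.16-fold DMSO dilution series (duplicates), incubated 24 h at 37 °C, then lysed. Exon 4 skipping measured by one-step RT-qPCR (48 °C RT, 40 cycles); IC50 interpolated from dose-response fit of percent skipping.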

Assay [2] relates to Total ATXN3 (tATXN3) protein. The experiment in a line: Endogenous Total ATXN3 (tATXN3) Protein Assay (MSD immunoassay of cell lysates). In kind it is cell-based. As to conditions: average IC50, total ATXN3 protein in cell lysate after 48 h with compound (Table 1). The method, boiled down:
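Cells in DMEM/10% FBS were plated at 10,000 per well onto 7-point, 3.16-fold compound dilutions in duplicate for 48 h at 37° C, then lysed. Total ATXN3 in lysates was measured by MSD sandwich immunoassay: mouse anti-ATXN3 capture, rabbit anti-ATXN3 detection, SULFO-TAG anti-rabbit. Average IC50 was reported in star bins.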

pIC50: −log10 of the molar value.

For `N[C@@H]1CC=CC[C@H]1c1sc2c(NCc3ccccc3)cc(Cl)nc2c1I` [Compound 345, 2-((1R,6R)-6-aminocyclohex-3-en-1-yl)-N-benzyl-5-chloro-3-iodothieno[3,2-b]pyridin-7-amine], the negative logarithm of the IC50 (pIC50) in assay [1] and in assay [2] was 6.52 to 7.52 each time.
As to `N[C@H]1CC=CC[C@@H]1c1c(I)c2nc(Cl)nc(NCc3ccccc3)c2n1C(F)F` [Compound 348, 6-((1S,6S)-6-aminocyclohex-3-en-1-yl)-N-benzyl-2-chloro-5-(difluoromethyl)-7-iodo-5H-pyrrolo[3,2-d]pyrimidin-4-amine], the pIC50 in assay [1] and in assay [2] was 6.52 to 7.52 in each case.
For the molecule `CN(Cc1cccs1)c1cc(Cl)nc2c(C#CCCCO)c([C@H]3CC=CC[C@@H]3N)sc12` [Compound 349, 5-(2-((1S,6S)-6-aminocyclohex-3-en-1-yl)-5-chloro-7-(methyl(thiophen-2-ylmethyl)amino)thieno[3,2-b]pyridin-3-yl)pent-4-yn-1-ol], the pIC50 in assay [1] and in assay [2] was 6.52 to 7.52 throughout.
Consider `Cn1c([C@H]2CCOC[C@@H]2N)c(Br)c2nc(Cl)cc(NCc3cccs3)c21` [Compound 351, 2-((3R,4S)-3-aminotetrahydro-2H-pyran-4-yl)-3-bromo-5-chloro-1-methyl-N-(thiophen-2-ylmethyl)-1H-pyrrolo[3,2-b]pyridin-7-amine], for which the pIC50 in assay [1] and in assay [2] was 6.52 to 7.52 throughout.
Take `N[C@H]1CC=CC[C@@H]1c1c(I)c2nc(Cl)cc(NCc3ccccc3)c2n1C(F)F` [Compound 352, 2-((1S,6S)-6-aminocyclohex-3-en-1-yl)-N-benzyl-5-chloro-1-(difluoromethyl)-3-iodo-1H-pyrrolo[3,2-b]pyridin-7-amine]: the pIC50 in assay [1] and in assay [2] was 6.52 to 7.52 in each case.
On to `Cc1c([C@H]2CC=C(C(=O)Nc3ccccc3)C[C@@H]2N)sc2c(NCc3cccs3)cc(Cl)nc12` [Compound 353, (4S,5S)-5-amino-4-(5-chloro-3-methyl-7-((thiophen-2-ylmethyl)amino)thieno[3,2-b]pyridin-2-yl)-N-phenylcyclohex-1-ene-1-carboxamide], for which the pIC50 in assay [1] and in assay [2] was 6.52 to 7.52 each time.
Turning to `N[C@@H]1CCC[C@@H](O)[C@H]1c1sc2c(NCc3cccs3)cc(Cl)nc2c1Br` [Compound 355, (1R,2S,3R)-3-amino-2-(3-bromo-5-chloro-7-((thiophen-2-ylmethyl)amino)thieno[3,2-b]pyridin-2-yl)cyclohexan-1-ol], the pIC50 in assay [1] and in assay [2] was 6.52 to 7.52 in each case.
On to `C#Cc1c([C@H]2CCCC[C@@H]2N)sc2c(NCc3ccco3)cc(Cl)nc12` [Compound 357, 2-((1S,2S)-2-aminocyclohexyl)-5-chloro-3-ethynyl-N-(furan-2-ylmethyl)thieno[3,2-b]pyridin-7-amine], for which the pIC50 in assay [1] and in assay [2] was 6.52 to 7.52 each time.
Take `N[C@H]1CCCC[C@@H]1c1sc2c(NCC3=CCCC3)cc(Cl)nc2c1Br` [Compound 361, 2-((1S,2S)-2-aminocyclohexyl)-3-bromo-5-chloro-N-(cyclopent-1-en-1-ylmethyl)thieno[3,2-b]pyridin-7-amine]: the pIC50 in assay [1] and in assay [2] was 6.52 to 7.52 each time.
As for `N[C@@H]1CC=CC[C@H]1c1sc2c(NCc3cccs3)nc(Cl)nc2c1I` [Compound 362, 6-((1R,6R)-6-aminocyclohex-3-en-1-yl)-2-chloro-7-iodo-N-(thiophen-2-ylmethyl)thieno[3,2-d]pyrimidin-4-amine], the pIC50 in assay [1] and in assay [2] was 6.52 to 7.52 each time.
Turning to `CC#CCNc1cc(Cl)nc2c(C)c([C@H]3CCCC[C@@H]3N)sc12` [Compound 363, 2-((1S,2S)-2-aminocyclohexyl)-N-(but-2-yn-1-yl)-5-chloro-3-methylthieno[3,2-b]pyridin-7-amine], the negative logarithm of the IC50 (pIC50) in assay [1] and in assay [2] was 6.52 to 7.52 throughout.
For the molecule `N[C@H]1COCC[C@@H]1c1sc2c(NCc3ccncc3)cc(Cl)nc2c1Br` [Compound 364, 2-((3R,4S)-3-aminotetrahydro-2H-pyran-4-yl)-3-bromo-5-chloro-N-(pyridin-4-ylmethyl)thieno[3,2-b]pyridin-7-amine], the pIC50 in assay [1] and in assay [2] was 6.52 to 7.52 in each case.
Take `COC(=O)CNc1cc(Cl)nc2c(Br)c([C@H]3CC=CC[C@@H]3N)sc12` [Compound 366, methyl (2-((1S,6S)-6-aminocyclohex-3-en-1-yl)-3-bromo-5-chlorothieno[3,2-b]pyridin-7-yl)glycinate]: the pIC50 in assay [1] and in assay [2] was 6.52 to 7.52 each time.
`N[C@@H]1CCCC[C@H]1c1sc2c(NCc3ccccc3)cc(Cl)nc2c1Cl` [Compound 368, 2-((1R,2R)-2-aminocyclohexyl)-N-benzyl-3,5-dichlorothieno[3,2-b]pyridin-7-amine]: the pIC50 in assay [1] and in assay [2] was 6.52 to 7.52 throughout.
In the case of `[2H]C1=C([2H])C([2H])([2H])[C@@H](c2sc3c(NCc4ccco4)cc(Cl)nc3c2Cl)[C@H](N)C1([2H])[2H]` [Compound 369, 2-((1R,6R)-6-aminocyclohex-3-en-1-yl-2,2,3,4,5,5-d6)-3,5-dichloro-N-(furan-2-ylmethyl)thieno[3,2-b]pyridin-7-amine], the pIC50 in assay [1] and in assay [2] was 6.52 to 7.52 in each case.
On to `N[C@@H]1CC=CC[C@H]1c1sc2c(NCc3ccncc3)cc(Cl)nc2c1Br` [Compound 373, 2-((1R,6R)-6-aminocyclohex-3-en-1-yl)-3-bromo-5-chloro-N-(pyridin-4-ylmethyl)thieno[3,2-b]pyridin-7-amine], for which the negative-log IC50 (pIC50) in assay [1] and in assay [2] was 6.52 to 7.52 throughout.
For the molecule `N[C@@H]1CC=CC[C@H]1c1sc2c(NCc3ccncc3F)cc(Cl)nc2c1Cl` [Compound 376, 2-((1R,6R)-6-aminocyclohex-3-en-1-yl)-3,5-dichloro-N-((3-fluoropyridin-4-yl)methyl)thieno[3,2-b]pyridin-7-amine], the pIC50 in assay [1] and in assay [2] was 6.52 to 7.52 each time.
On to `N[C@H]1CC=C[C@@H](O)[C@@H]1c1sc2c(NCc3cccs3)cc(Cl)nc2c1Cl` [Compound 377, (1R,5S,6R)-5-amino-6-(3,5-dichloro-7-((thiophen-2-ylmethyl)amino)thieno[3,2-b]pyridin-2-yl)cyclohex-2-en-1-ol], for which the pIC50 in assay [1] and in assay [2] was 6.52 to 7.52 in each case.
On to `C/C=C/CNc1cc(Cl)nc2c(C)c([C@H]3CC=CC[C@@H]3N)sc12` [Compound 378, 2-((1S,6S)-6-aminocyclohex-3-en-1-yl)-N-((E)-but-2-en-1-yl)-5-chloro-3-methylthieno[3,2-b]pyridin-7-amine], for which the pIC50 in assay [1] and in assay [2] was 6.52 to 7.52 throughout.
Take `N[C@@H]1CC=CC[C@H]1c1c(I)c2nc(Cl)nc(NCc3ccco3)c2n1C(F)F` [Compound 379, 6-((1R,6R)-6-aminocyclohex-3-en-1-yl)-2-chloro-5-(difluoromethyl)-N-(furan-2-ylmethyl)-7-iodo-5H-pyrrolo[3,2-d]pyrimidin-4-amine]: the pIC50 in assay [1] and in assay [2] was 6.52 to 7.52 throughout.
On to `N[C@@H]1CC=CC[C@H]1c1sc2c(NCc3nccs3)cc(Cl)nc2c1Cl` [Compound 380, 2-((1R,6R)-6-aminocyclohex-3-en-1-yl)-3,5-dichloro-N-(thiazol-2-ylmethyl)thieno[3,2-b]pyridin-7-amine], for which the negative logarithm of the IC50 (pIC50) in assay [1] and in assay [2] was 6.52 to 7.52 throughout.
As for `Cc1c([C@@H]2CC=CC[C@H]2N)sc2c(NCc3ccco3)cc(Cl)nc12` [Compound 382, 2-((1R,6R)-6-aminocyclohex-3-en-1-yl)-5-chloro-N-(furan-2-ylmethyl)-3-methylthieno[3,2-b]pyridin-7-amine], the negative-log IC50 (pIC50) in assay [1] and in assay [2] was 6.52 to 7.52 in each case.
As for `Cn1c([C@@H]2CCOC[C@H]2N)c(Br)c2nc(Cl)cc(NCc3cccs3)c21` [Compound 384, 2-((3S,4R)-3-aminotetrahydro-2H-pyran-4-yl)-3-bromo-5-chloro-1-methyl-N-(thiophen-2-ylmethyl)-1H-pyrrolo[3,2-b]pyridin-7-amine], the pIC50 in assay [1] and in assay [2] was 6.52 to 7.52 throughout.
Consider `N[C@@H]1CC=CC[C@H]1c1sc2c(NCc3cccs3)nc(Cl)nc2c1Br` [Compound 385, 6-((1R,6R)-6-aminocyclohex-3-en-1-yl)-7-bromo-2-chloro-N-(thiophen-2-ylmethyl)thieno[3,2-d]pyrimidin-4-amine], for which the pIC50 in assay [1] and in assay [2] was 6.52 to 7.52 in each case.
For the molecule `CC#CCNc1cc(Cl)nc2c(I)c([C@@H]3CC=CC[C@H]3N)sc12` [Compound 386, 2-((1R,6R)-6-aminocyclohex-3-en-1-yl)-N-(but-2-yn-1-yl)-5-chloro-3-iodothieno[3,2-b]pyridin-7-amine], the pIC50 in assay [1] and in assay [2] was 6.52 to 7.52 in each case.
Consider `N[C@@H]1CCOC[C@H]1c1sc2c(NCc3ccco3)cc(Cl)nc2c1Cl` [Compound 389, 2-((3S,4R)-4-aminotetrahydro-2H-pyran-3-yl)-3,5-dichloro-N-(furan-2-ylmethyl)thieno[3,2-b]pyridin-7-amine], for which the pIC50 in assay [1] and in assay [2] was 6.00 to 6.52 each time.
On to `N[C@@H]1CCCC[C@H]1c1c(I)c2nc(Cl)nc(NCc3ccco3)c2n1C(F)F` [Compound 391, 6-((1R,2R)-2-aminocyclohexyl)-2-chloro-5-(difluoromethyl)-N-(furan-2-ylmethyl)-7-iodo-5H-pyrrolo[3,2-d]pyrimidin-4-amine], for which the pIC50 in assay [1] and in assay [2] was 6.00 to 6.52 in each case.
